In the NIST ThermoML archive (doi:10.1016/j.jct.2012.03.013):

How the values were obtained:
[1] = refractive index (Na D-line) (dimensionless); details: 298.15 K; 101.33 kPa; Liquid; Standard Abbe refractometry
[2] = Liquid; for speed of sound: Pulse-echo method
[3] = molar heat capacity at constant pressure; details: Liquid, Acoustic Method

OCCCCO [1,4-butanediol]
Details | refractive index
[1] | 1.4447

[2]
Details | mass density [kg/m3]
293.15 K, 100 kPa, Acoustic method | 1015.74
293.15 K, 101.33 kPa, Vibrating tube method | 1015.74
298.15 K, 100 kPa, Acoustic method | 1012.78
298.15 K, 101.33 kPa, Vibrating tube method | 1012.78
298.15 K, 10000 kPa, Acoustic method | 1016.99
298.15 K, 20000 kPa, Acoustic method | 1021.1
298.15 K, 30000 kPa, Acoustic method | 1025.06
298.15 K, 40000 kPa, Acoustic method | 1028.89
303.14 K, 101.33 kPa, Vibrating tube method | 1009.78
303.15 K, 100 kPa, Acoustic method | 1009.77
303.15 K, 10000 kPa, Acoustic method | 1014.06
303.15 K, 20000 kPa, Acoustic method | 1018.23
303.15 K, 30000 kPa, Acoustic method | 1022.25
303.15 K, 40000 kPa, Acoustic method | 1026.13
303.15 K, 50000 kPa, Acoustic method | 1029.88
303.15 K, 60000 kPa, Acoustic method | 1033.51
303.15 K, 70000 kPa, Acoustic method | 1037.04
303.15 K, 80000 kPa, Acoustic method | 1040.47
303.15 K, 90000 kPa, Acoustic method | 1043.8
308.15 K, 100 kPa, Acoustic method | 1006.76
308.15 K, 101.33 kPa, Vibrating tube method | 1006.76
308.15 K, 10000 kPa, Acoustic method | 1011.12
308.15 K, 20000 kPa, Acoustic method | 1015.35
308.15 K, 30000 kPa, Acoustic method | 1019.42
308.15 K, 40000 kPa, Acoustic method | 1023.35
308.15 K, 50000 kPa, Acoustic method | 1027.15
308.15 K, 60000 kPa, Acoustic method | 1030.83
308.15 K, 70000 kPa, Acoustic method | 1034.41
308.15 K, 80000 kPa, Acoustic method | 1037.87
308.15 K, 90000 kPa, Acoustic method | 1041.25
308.15 K, 100000 kPa, Acoustic method | 1044.53
313.14 K, 101.33 kPa, Vibrating tube method | 1003.72
313.15 K, 100 kPa, Acoustic method | 1003.73
313.15 K, 10000 kPa, Acoustic method | 1008.15
313.15 K, 20000 kPa, Acoustic method | 1012.44
313.15 K, 30000 kPa, Acoustic method | 1016.57
313.15 K, 40000 kPa, Acoustic method | 1020.56
313.15 K, 50000 kPa, Acoustic method | 1024.41
313.15 K, 60000 kPa, Acoustic method | 1028.14
313.15 K, 70000 kPa, Acoustic method | 1031.76
313.15 K, 80000 kPa, Acoustic method | 1035.27
313.15 K, 90000 kPa, Acoustic method | 1038.68
313.15 K, 100000 kPa, Acoustic method | 1042
318.15 K, 100 kPa, Acoustic method | 1000.67
318.15 K, 101.33 kPa, Vibrating tube method | 1000.67
318.15 K, 10000 kPa, Acoustic method | 1005.17
318.15 K, 20000 kPa, Acoustic method | 1009.52
318.15 K, 30000 kPa, Acoustic method | 1013.71
318.15 K, 40000 kPa, Acoustic method | 1017.75
318.15 K, 50000 kPa, Acoustic method | 1021.65
318.15 K, 60000 kPa, Acoustic method | 1025.43
318.15 K, 70000 kPa, Acoustic method | 1029.09
318.15 K, 80000 kPa, Acoustic method | 1032.64
318.15 K, 90000 kPa, Acoustic method | 1036.09
318.15 K, 100000 kPa, Acoustic method | 1039.45
323.15 K, 101.33 kPa, Vibrating tube method | 997.61
328.15 K, 101.33 kPa, Vibrating tube method | 994.53
333.15 K, 101.33 kPa, Vibrating tube method | 991.44
338.15 K, 101.33 kPa, Vibrating tube method | 988.31
343.14 K, 101.33 kPa, Vibrating tube method | 985.17
348.15 K, 101.33 kPa, Vibrating tube method | 982.01
353.15 K, 101.33 kPa, Vibrating tube method | 978.82

Details | molar heat capacity at constant pressure [J/K/mol] | speed of sound [m/s]
[2], 298.07 K, 15200 kPa | – | 1649.2
[2], 298.07 K, 30390 kPa | – | 1693.3
[2], 298.08 K, 45590 kPa | – | 1735.4
[2], 298.11 K, 100 kPa | – | 1602.1
[2], 298.15 K, 101.33 kPa | – | 1601.8
[2], 303.15 K, 101.33 kPa | – | 1589.9
[2], 303.15 K, 60790 kPa | – | 1763.6
[2], 303.15 K, 70920 kPa | – | 1789.3
[2], 303.15 K, 75990 kPa | – | 1801.9
[2], 303.15 K, 91180 kPa | – | 1837.8
[2], 303.16 K, 30390 kPa | – | 1682.4
[2], 303.16 K, 45590 kPa | – | 1724.1
[2], 303.16 K, 50660 kPa | – | 1738
[2], 303.17 K, 100 kPa | – | 1590.2
[2], 303.17 K, 15200 kPa | – | 1637.6
[2], 308.14 K, 15200 kPa | – | 1626.6
[2], 308.14 K, 30390 kPa | – | 1671.6
[2], 308.14 K, 45590 kPa | – | 1713.7
[2], 308.14 K, 75990 kPa | – | 1792
[2], 308.14 K, 91180 kPa | – | 1828.2
[2], 308.14 K, 101320 kPa | – | 1851.7
[2], 308.15 K, 100 kPa | – | 1578.4
[2], 308.15 K, 101.33 kPa | – | 1578.5
[2], 308.15 K, 60790 kPa | – | 1753.3
[2], 313.09 K, 15200 kPa | – | 1614.6
[2], 313.09 K, 30390 kPa | – | 1660.5
[2], 313.1 K, 45590 kPa | – | 1703
[2], 313.1 K, 60790 kPa | – | 1743.5
[2], 313.1 K, 75990 kPa | – | 1782
[2], 313.1 K, 91180 kPa | – | 1819
[2], 313.1 K, 101320 kPa | – | 1842.1
[2], 313.12 K, 100 kPa | – | 1567
[2], 313.15 K, 101.33 kPa | – | 1566.7
[2], 318.15 K, 101.33 kPa | – | 1555.2
[2], 318.17 K, 30390 kPa | – | 1649.8
[2], 318.17 K, 45590 kPa | – | 1692.6
[2], 318.17 K, 60790 kPa | – | 1733.4
[2], 318.17 K, 75990 kPa | – | 1772
[2], 318.18 K, 15200 kPa | – | 1603.3
[2], 318.18 K, 91180 kPa | – | 1809.4
[2], 318.18 K, 101320 kPa | – | 1832.7
[2], 318.2 K, 100 kPa | – | 1555.3
[3], 298.15 K, 10000 kPa | 202.7 | –
[3], 298.15 K, 20000 kPa | 202.4 | –
[3], 298.15 K, 30000 kPa | 202 | –
[3], 298.15 K, 40000 kPa | 201.7 | –
[3], 303.15 K, 10000 kPa | 205.5 | –
[3], 303.15 K, 20000 kPa | 205.1 | –
[3], 303.15 K, 30000 kPa | 204.7 | –
[3], 303.15 K, 40000 kPa | 204.4 | –
[3], 303.15 K, 50000 kPa | 204.1 | –
[3], 303.15 K, 60000 kPa | 203.8 | –
[3], 303.15 K, 70000 kPa | 203.5 | –
[3], 303.15 K, 80000 kPa | 203.2 | –
[3], 303.15 K, 90000 kPa | 202.9 | –
[3], 308.15 K, 10000 kPa | 208.3 | –
[3], 308.15 K, 20000 kPa | 207.9 | –
[3], 308.15 K, 30000 kPa | 207.6 | –
[3], 308.15 K, 40000 kPa | 207.2 | –
[3], 308.15 K, 50000 kPa | 206.9 | –
[3], 308.15 K, 60000 kPa | 206.6 | –
[3], 308.15 K, 70000 kPa | 206.3 | –
[3], 308.15 K, 80000 kPa | 206 | –
[3], 308.15 K, 90000 kPa | 205.7 | –
[3], 308.15 K, 100000 kPa | 205.4 | –
[3], 313.15 K, 10000 kPa | 211.2 | –
[3], 313.15 K, 20000 kPa | 210.8 | –
[3], 313.15 K, 30000 kPa | 210.4 | –
[3], 313.15 K, 40000 kPa | 210.1 | –
[3], 313.15 K, 50000 kPa | 209.7 | –
[3], 313.15 K, 60000 kPa | 209.4 | –
[3], 313.15 K, 70000 kPa | 209.1 | –
[3], 313.15 K, 80000 kPa | 208.8 | –
[3], 313.15 K, 90000 kPa | 208.5 | –
[3], 313.15 K, 100000 kPa | 208.2 | –
[3], 318.15 K, 10000 kPa | 214.2 | –
[3], 318.15 K, 20000 kPa | 213.8 | –
[3], 318.15 K, 30000 kPa | 213.4 | –
[3], 318.15 K, 40000 kPa | 213 | –
[3], 318.15 K, 50000 kPa | 212.7 | –
[3], 318.15 K, 60000 kPa | 212.3 | –
[3], 318.15 K, 70000 kPa | 212 | –
[3], 318.15 K, 80000 kPa | 211.7 | –
[3], 318.15 K, 90000 kPa | 211.4 | –
[3], 318.15 K, 100000 kPa | 211.1 | –
